pIC50: −log10 of the molar value.

The target in one assay is Factor IXa (Homo sapiens (Human), UniProt P00740). The experiment in a line: Determination of inhibitory activity against Factor IXa (cleavage of fluorescent peptide CH3SO2-D-CHG-Gly-Arg-AFC). Type of assay: biochemical. The following applies: read-out: FIXa IC50. As to the method: Determination of Inhibitory Activity Against Factor IXa
Factor IXa, sequence (P00740 227-461): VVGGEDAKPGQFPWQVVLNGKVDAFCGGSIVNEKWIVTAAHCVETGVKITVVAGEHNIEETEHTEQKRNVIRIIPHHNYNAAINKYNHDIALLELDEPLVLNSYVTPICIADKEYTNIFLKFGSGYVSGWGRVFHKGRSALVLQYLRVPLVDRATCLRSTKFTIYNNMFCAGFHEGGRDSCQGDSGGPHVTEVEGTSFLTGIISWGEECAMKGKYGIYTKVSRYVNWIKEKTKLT
Factor IXa, sequence (P00740 47-191 partner): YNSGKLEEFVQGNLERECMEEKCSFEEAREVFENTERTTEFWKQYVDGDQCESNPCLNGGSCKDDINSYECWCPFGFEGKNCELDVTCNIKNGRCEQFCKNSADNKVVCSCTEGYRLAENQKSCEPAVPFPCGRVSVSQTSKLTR
Formation of a clot to stem bleeding at a site of blood vessel injury involves the coordinated activity of a group of plasma proteins that initiate and propagate fibrin formation and subsequently protect fibrin from premature degradation. Factor IX is a key component of the plasma system that forms a fibrin clot at a site of vascular injury. The activity of Factor IXa is measured by monitoring the cleavage of the fluorescent peptide, CH3SO2-D-CHG-Gly-Arg-AFC.AcOH (“CHG” is cyclohexyl-glycine and “AFC” is trifluoro aminomethyl coumarin). Factor IXa cleaves the amide bond between Arg and AFC, thereby releasing the AFC fluorophore. The free AFC can be detected with a fluorescence detector at an excitation wavelength of 405 nm and emission wavelength of 510 nm.
Turning to `Cc1ccc2c(cnn2[C@H](CNC(=O)c2c(Cl)cc(-n3cc(CCO)nn3)cc2Cl)c2cnco2)c1` [Example 86, (R)-2,6-dichloro-4-(4-(2-hydroxyethyl)-1H-1,2,3-triazol-1-yl)-N-(2-(5-methyl-1H-indazol-1-yl)-2-(oxazol-5-yl)ethyl)benzamide], the pIC50 is 8.15.

In the case of `Cc1ccc2c([C@H](CNC(=O)c3ccc(-n4cnnc4)cc3Cl)c3ccccc3)n[nH]c2c1` [Example 88, (S)-2-chloro-N-(2-(6-methyl-1H-indazol-3-yl)-2-phenylethyl)-4-(4H-1,2,4-triazol-4-yl)benzamide], the pIC50 was 7.16.

As for `Cc1ccc2nn([C@@H](CNC(=O)c3c(Cl)cc(-n4cnnc4)cc3Cl)c3ccccc3)nc2c1` [Example 89, (R)-2,6-dichloro-N-(2-(5-methyl-2H-benzo[d][1,2,3]triazol-2-yl)-2-phenylethyl)-4-(4H-1,2,4-triazol-4-yl)benzamide], the pIC50 was 7.68.

For the molecule `Cc1ccc2c(c1)nnn2[C@H](CNC(=O)c1c(Cl)cc(-n2cnnc2)cc1Cl)c1ccccc1` [Example 90, (S)-2,6-dichloro-N-(2-(5-methyl-1H-benzo[d][1,2,3]triazol-1-yl)-2-phenylethyl)-4-(4H-1,2,4-triazol-4-yl)benzamide], the negative-log IC50 (pIC50) was 7.42.

Take `Cc1ccc2nc([C@@H](CNC(=O)c3ccc(-n4cnnc4)cc3Cl)c3ccccc3)[nH]c(=O)c2c1` [Example 91, (R)-2-Chloro-N-(2-(6-methyl-4-oxo-3,4-dihydroquinazolin-2-yl)-2-phenylethyl)-4-(4H-1,2,4-triazol-4-yl)benzamide]: the pIC50 is 6.72.

As to `Cc1ncn(-c2cc(Cl)c(C(=O)NC[C@@H](c3cccc(F)c3)c3nc4c(F)ccc(C)c4c(=O)[nH]3)c(Cl)c2)n1` [Example 92, (R)-2,6-dichloro-N-(2-(8-fluoro-5-methyl-4-oxo-3,4-dihydroquinazolin-2-yl)-2-(3-fluorophenyl)ethyl)-4-(3-methyl-1H-1,2,4-triazol-1-yl)benzamide], the pIC50 is 9.00.

In the case of `Cc1ncn(-c2cc(Cl)c(C(=O)NC[C@@H](c3ccc(F)cc3)c3nc4c(F)ccc(C)c4c(=O)[nH]3)c(Cl)c2)n1` [Example 93, (R)-2,6-dichloro-N-(2-(8-fluoro-5-methyl-4-oxo-3,4-dihydroquinazolin-2-yl)-2-(4-fluorophenyl)ethyl)-4-(3-methyl-1H-1,2,4-triazol-1-yl)benzamide], the pIC50 is 8.34.

`Cc1ncn(-c2cc(Cl)c(C(=O)NC[C@@H](c3cccc(F)c3)c3nc4c(F)ccc(Cl)c4c(=O)[nH]3)c(Cl)c2)n1` [Example 94, (R)-2,6-dichloro-N-(2-(5-chloro-8-fluoro-4-oxo-3,4-dihydroquinazolin-2-yl)-2-(3-fluorophenyl)ethyl)-4-(3-methyl-1H-1,2,4-triazol-1-yl)benzamide]: the pIC50 is 8.46.

Staying with this assay, now noted: read-out: hFIXa IC50.
`Cc1ccc2c([C@H](CNC(=O)c3ccc(-n4cnnc4)cc3Cl)c3cccc(F)c3)c[nH]c2c1` [Example 87]: the pIC50 is 7.51.

Consider `O=C(NCC(c1ccccc1)c1nc2cc(Cl)ccc2c(=O)[nH]1)c1ccc(-n2cnnc2)cc1Cl` (centres unmarked) [Example 95], for which the pIC50 is 6.10.

Consider `O=C(NC[C@@H](c1ccccc1)c1nc2ccc(Cl)cc2c(=O)[nH]1)c1ccc(-n2cnnc2)cc1Cl` [Example 96], for which the pIC50 is 6.72.

As for `O=C(NC[C@@H](c1ccccc1)c1nc2cccc(Cl)c2c(=O)[nH]1)c1ccc(-n2cnnc2)cc1Cl` [Example 97], the pIC50 is 7.29.

Take `O=C(NC[C@@H](c1ccccc1)c1nc2c(Cl)cccc2c(=O)[nH]1)c1ccc(-n2cnnc2)cc1Cl` [Example 98]: the pIC50 was 6.75.

Take `O=C(NC[C@@H](c1ccccc1)c1nc2c(Cl)ccc(Cl)c2c(=O)[nH]1)c1ccc(-n2cnnc2)cc1Cl` [Example 99]: the pIC50 is 7.37.

Regarding `Cc1cccc2nc([C@@H](CNC(=O)c3ccc(-n4cnnc4)cc3Cl)c3ccccc3)[nH]c(=O)c12` [Example 100], the pIC50 was 7.77.

In the case of `Cc1ccc(F)c2nc(C(CNC(=O)c3ccc(-n4cnnc4)cc3Cl)c3ccccc3)[nH]c(=O)c12` (centres unmarked) [Example 101], the pIC50 was 8.18.

As for `Cc1ncn(-c2ccc(C(=O)NC[C@@H](c3ccccc3)c3nc4c(F)ccc(C)c4c(=O)[nH]3)c(Cl)c2)n1` [Example 102], the pIC50 is 7.97.

Take `Cc1ncn(-c2ccc(C(=O)NC[C@@H](c3cccc(F)c3)c3nc4c(F)ccc(C)c4c(=O)[nH]3)c(Cl)c2)n1` [Example 103]: the pIC50 is 8.20.

As to `O=C(O)c1ccc2ncn(-c3ccc(C(=O)NCC(c4cccc(F)c4)c4nc5c(F)ccc(Cl)c5c(=O)[nH]4)c(Cl)c3)c2c1` (centres unmarked) [Example 104], the pIC50 is 8.71.

As to `O=C(O)c1ccc2c(c1)ncn2-c1ccc(C(=O)NCC(c2cccc(F)c2)c2nc3c(F)ccc(Cl)c3c(=O)[nH]2)c(Cl)c1` (centres unmarked) [Example 105], the pIC50 was 8.48.

As for `Cc1ccc(F)c2nc([C@@H](CNC(=O)c3ccc(-c4ccnnc4)cc3Cl)c3cccc(F)c3)[nH]c(=O)c12` [Example 106], the pIC50 was 8.07.

For `Cc1ccc(F)c2nc([C@@H](CNC(=O)c3ccc(-n4cnc(CCO)c4)cc3Cl)c3cccc(F)c3)[nH]c(=O)c12` [Example 107], the pIC50 is 8.14.

Turning to `Cc1ccc(F)c2nc([C@@H](CNC(=O)c3ccc(-c4ccc(=O)n(C)c4)cc3Cl)c3cccc(F)c3)[nH]c(=O)c12` [Example 108], the pIC50 was 8.04.

Turning to `Cc1ccc(F)c2nc([C@@H](CNC(=O)c3ccc(-n4cnn(C)c4=O)cc3Cl)c3cccc(F)c3)[nH]c(=O)c12` [Example 109], the pIC50 was 8.74.

On to `Cc1ncn(-c2cc(Cl)c(C(=O)NC[C@@H](c3cccnc3)c3nc4c(F)ccc(C)c4c(=O)n3C)c(Cl)c2)n1` [Example 110], for which the pIC50 is 8.05.

In the case of `Cc1ccc(F)c2nc([C@@H](CNC(=O)c3ccc(-n4cnnc4C(F)F)cc3Cl)c3cccc(F)c3)[nH]c(=O)c12` [Example 111], the pIC50 is 8.02.

On to `Cc1ncn(-c2cc(Cl)c(C(=O)NC[C@@H](c3cccc(F)c3)c3ccc4c(C)ccc(F)c4n3)c(Cl)c2)n1` [Example 113], for which the pIC50 was 7.98.

On to `COc1cc([C@@H](CNC(=O)c2c(Cl)cc(-n3cnc(C)n3)cc2Cl)c2cccc(F)c2)nc2c(F)ccc(C)c12` [Example 114], for which the pIC50 is 7.28.

As to `Cc1ncn(-c2cc(Cl)c(C(=O)NCC(c3cccc(F)c3)c3nc4cc(C)c(C)cc4[nH]c3=O)c(Cl)c2)n1` (centres unmarked) [Example 116], the pIC50 was 7.29.

For the origin of these results see US10189819B2, “Factor IXa inhibitors” (MERCK SHARP & DOHME CORP., priority 2014, dated 2019).
